Legend:
Assay type in all cases: in vivo
[1] = tested on: morningglory (Ipomoea coccinea); assay: Test B pre-/postemergence plant response
Summary of the method: (§1)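 Preemergence and postemergence (plants 2-18 cm, 1- to 4-leaf stage) applications used test chemicals in a non-phytotoxic solvent with surfactant. Plants were held in a greenhouse 13 to 15 days, then rated visually against controls on a 0-100 scale (0 no effect, 100 complete control).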

[2] = tested on: pigweed (Amaranthus retroflexus); assay: Test B pre-/postemergence plant response
Summary of the method: as §1

[3] = tested on: wheat (Triticum aestivum); assay: Test B pre-/postemergence plant response
Summary of the method: as §1

[4] = tested on: surinam grass (Brachiaria decumbens); assay: Test B pre-/postemergence plant response
Summary of the method: as §1

[5] = tested on: Italian ryegrass (Lolium multiflorum); assay: Test B pre-/postemergence plant response
Summary of the method: as §1

[6] = tested on: lambsquarters (Chenopodium album); assay: Test B pre-/postemergence plant response
Summary of the method: as §1

[7] = tested on: giant foxtail (Setaria faberii); assay: Test B pre-/postemergence plant response
Summary of the method: as §1

[8] = tested on: bermudagrass (Cynodon dactylon); assay: Test B pre-/postemergence plant response; details: for Bermudagrass plant response rating: 8 g ai/ha
Summary of the method: as §1

[9] = tested on: downy bromegrass (Bromus tectorum); assay: Test B pre-/postemergence plant response; details: for Bromegrass, Downy plant response rating: 8 g ai/ha
Summary of the method: as §1

soybean (Glycine max) = assay: Test B pre-/postemergence plant response
Summary of the method: as §1

[10] = tested on: common (oilseed) sunflower (Helianthus annuus); assay: Test B pre-/postemergence plant response; details: Preemergence; for Sunflower plant response rating: scale 0 to 100
Summary of the method: as §1

[11] = tested on: winter barley (Hordeum vulgare); assay: Test B postemergence plant response; details: for Barley plant response rating: 8 g ai/ha, postemergence, 0-100 scale; for Plant response rating, Barley: Postemergence, scale 0 to 100, 0 no effect, 100 complete control
Summary of the method: (§2)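 Postemergence spray on 1- to 4-leaf plants (2–18 cm); greenhouse 13–15 d; visual rating vs controls, 0 = no effect, 100 = complete control; dash = not tested.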

[12] = tested on: windgrass (Apera spica-venti); assay: Test B postemergence plant response; details: for Windgrass plant response rating: postemergence, 0-100 scale; for Plant response rating, Windgrass: Postemergence
Summary of the method: as §2

[13] = tested on: canarygrass (Phalaris minor); assay: Test B postemergence plant response; details: for Canarygrass plant response rating: 8 g ai/ha, postemergence, 0-100 scale; for Plant response rating, Canarygrass: Postemergence
Summary of the method: as §2

[14] = tested on: chickweed (Stellaria media); assay: Test B postemergence plant response; details: for Chickweed plant response rating: 8 g ai/ha, postemergence, 0-100 scale; for Plant response rating, Chickweed: Postemergence
Summary of the method: as §2

[15] = 8 g ai/ha, postemergence, 0-100 scale
[16] = 16 g ai/ha, postemergence, 0-100 scale
[17] = Postemergence, 31 g ai/ha, scale 0 to 100
[18] = Postemergence, 62 g ai/ha, scale 0 to 100, 0 no effect, 100 complete control
[19] = Preemergence, 31 g ai/ha, scale 0 to 100 (0 no effect, 100 complete control)
[20] = Preemergence, 62 g ai/ha, 0 to 100 scale, 0 no effect, 100 complete control
[21] = Preemergence, 8 g ai/ha, scale 0 to 100
[22] = Preemergence, 16 g ai/ha, scale 0 to 100
[23] = Postemergence, 16 g ai/ha, scale 0 to 100
[24] = Preemergence, scale 0 to 100 (0 no effect, 100 complete control)
[25] = Preemergence, 16 g ai/ha, scale 0 to 100 (0 no effect, 100 complete control)
[26] = 31 g ai/ha, scale 0 to 100 (0 no effect, 100 complete control)
[27] = 62 g ai/ha, 0 to 100 scale, 0 no effect, 100 complete control
[28] = 62 g ai/ha, scale 0 to 100, 0 no effect, 100 complete control

CCc1cc(-c2ccc(Br)cc2)nn1-c1c(O)cnn(C)c1=O [Compound 61]
Morningglory plant response rating [1, 15]: 0
Morningglory plant response rating [1, 16]: 0
Plant response rating, Morningglory [1, 17]: 0
Plant response rating, Morningglory [1, 18]: 0
Plant response rating, Morningglory [1, 19]: 0
Plant response rating, Morningglory [1, 20]: 0
Morningglory plant response rating [1, 21]: 0
Morningglory plant response rating [1, 22]: 0
Pigweed plant response rating [2, 15]: 0
Pigweed plant response rating [2, 16]: 0
Plant response rating, Pigweed [2, 17]: 0
Plant response rating, Pigweed [2, 18]: 0
Plant response rating, Pigweed [2, 19]: 0
Plant response rating, Pigweed [2, 20]: 0
Pigweed plant response rating [2, 21]: 0
Pigweed plant response rating [2, 22]: 0
Wheat plant response rating [3, 15]: 90
Wheat plant response rating [3, 16]: 95
Plant response rating, Wheat [3, 17]: 98
Plant response rating, Wheat [3, 18]: 100
Plant response rating, Wheat [3, 19]: 90
Plant response rating, Wheat [3, 20]: 95
Wheat plant response rating [3, 22]: 30
Surinam Grass plant response rating [4, 15]: 100
Surinam Grass plant response rating [4, 16]: 100
Plant response rating, Surinam Grass [4, 17]: 100
Plant response rating, Surinam Grass [4, 18]: 100
Plant response rating, Surinam Grass [4, 19]: 100
Plant response rating, Surinam Grass [4, 20]: 100
Surinam Grass plant response rating [4, 21]: 85
Surinam Grass plant response rating [4, 22]: 100
Ryegrass, Italian plant response rating [5, 15]: 100
Ryegrass, Italian plant response rating [5, 16]: 100
Plant response rating, Ryegrass, Italian [5, 17]: 100
Plant response rating, Ryegrass, Italian [5, 18]: 100
Plant response rating, Ryegrass, Italian [5, 19]: 100
Plant response rating, Ryegrass, Italian [5, 20]: 100
Ryegrass, Italian plant response rating [5, 21]: 85
Ryegrass, Italian plant response rating [5, 22]: 100
Lambsquarters plant response rating [6, 15]: 0
Lambsquarters plant response rating [6, 16]: 0
Plant response rating, Lambsquarters [6, 17]: 0
Plant response rating, Lambsquarters [6, 18]: 0
Plant response rating, Lambsquarters [6, 19]: 0
Plant response rating, Lambsquarters [6, 20]: 0
Lambsquarters plant response rating [6, 21]: 0
Lambsquarters plant response rating [6, 22]: 0
Foxtail, Giant plant response rating [7, 15]: 98
Plant response rating, Foxtail, Giant [7, 23]: 100
Plant response rating, Foxtail, Giant [7, 17]: 100
Plant response rating, Foxtail, Giant [7, 18]: 100
Plant response rating, Foxtail, Giant [7, 19]: 100
Plant response rating, Foxtail, Giant [7, 20]: 100
Foxtail, Giant plant response rating [7, 21]: 75
Foxtail, Giant plant response rating [7, 22]: 100
Bermudagrass plant response rating ([8]; postemergence, 0-100 scale): 55
Plant response rating, Bermudagrass [8, 23]: 70
Plant response rating, Bermudagrass [8, 17]: 95
Plant response rating, Bermudagrass [8, 18]: 100
Bermudagrass plant response rating [8, 24]: 55
Plant response rating, Bermudagrass [8, 25]: 80
Plant response rating, Bermudagrass [8, 19]: 90
Plant response rating, Bermudagrass [8, 20]: 95
Bromegrass, Downy plant response rating ([9]; postemergence, 0-100 scale): 80
Plant response rating, Bromegrass, Downy [9, 23]: 90
Plant response rating, Bromegrass, Downy [9, 17]: 98
Plant response rating, Bromegrass, Downy [9, 18]: 98
Plant response rating, Bromegrass, Downy [9, 25]: 90
Plant response rating, Bromegrass, Downy [9, 19]: 95
Plant response rating, Bromegrass, Downy [9, 20]: 95
Bromegrass, Downy plant response rating ([9]; Preemergence, scale 0 to 100): 0
Plant response rating, Soybean (soybean (Glycine max); [19]): 0
Plant response rating, Soybean (soybean (Glycine max); [20]): 0
Soybean plant response rating (soybean (Glycine max); [21]): 0
Soybean plant response rating (soybean (Glycine max); [22]): 0
Plant response rating, Sunflower [10, 26]: 0
Plant response rating, Sunflower [10, 27]: 0
Sunflower plant response rating ([10]; 8 g ai/ha): 0
Sunflower plant response rating ([10]; 16 g ai/ha): 0
Barley plant response rating [11]: 70
Plant response rating, Barley ([11]; 16 g ai/ha): 90
Plant response rating, Barley ([11]; 31 g ai/ha): 90
Plant response rating, Barley ([11]; 62 g ai/ha): 90
Windgrass plant response rating ([12]; 8 g ai/ha): 90
Windgrass plant response rating ([12]; 16 g ai/ha): 100
Plant response rating, Windgrass ([12]; 31 g ai/ha, scale 0 to 100): 100
Plant response rating, Windgrass [12, 28]: 100
Canarygrass plant response rating [13]: 80
Plant response rating, Canarygrass ([13]; 16 g ai/ha, scale 0 to 100): 85
Plant response rating, Canarygrass ([13]; 31 g ai/ha, scale 0 to 100): 85
Plant response rating, Canarygrass [13, 28]: 85
Chickweed plant response rating [14]: 0
Plant response rating, Chickweed ([14]; 16 g ai/ha, scale 0 to 100): 0
Plant response rating, Chickweed ([14]; 31 g ai/ha, scale 0 to 100): 0
Plant response rating, Chickweed [14, 28]: 0

CCc1cc(-c2ccc(C(F)(F)F)cc2)nn1-c1c(O)cnn(CC)c1=O [Compound 67]
Morningglory plant response rating [1, 15]: 0
Morningglory plant response rating [1, 16]: 0
Plant response rating, Morningglory [1, 17]: 0
Plant response rating, Morningglory [1, 18]: 0
Plant response rating, Morningglory [1, 19]: 0
Plant response rating, Morningglory [1, 20]: 0
Morningglory plant response rating [1, 21]: 0
Morningglory plant response rating [1, 22]: 0
Pigweed plant response rating [2, 15]: 0
Pigweed plant response rating [2, 16]: 0
Plant response rating, Pigweed [2, 17]: 0
Plant response rating, Pigweed [2, 18]: 0
Plant response rating, Pigweed [2, 19]: 0
Plant response rating, Pigweed [2, 20]: 0
Pigweed plant response rating [2, 21]: 0
Pigweed plant response rating [2, 22]: 0
Wheat plant response rating [3, 15]: 95
Wheat plant response rating [3, 16]: 100
Plant response rating, Wheat [3, 17]: 100
Plant response rating, Wheat [3, 18]: 100
Plant response rating, Wheat [3, 19]: 100
Plant response rating, Wheat [3, 20]: 100
Wheat plant response rating [3, 22]: 70
Surinam Grass plant response rating [4, 15]: 70
Surinam Grass plant response rating [4, 16]: 85
Plant response rating, Surinam Grass [4, 17]: 100
Plant response rating, Surinam Grass [4, 18]: 100
Plant response rating, Surinam Grass [4, 19]: 0
Plant response rating, Surinam Grass [4, 20]: 55
Surinam Grass plant response rating [4, 21]: 0
Surinam Grass plant response rating [4, 22]: 0
Ryegrass, Italian plant response rating [5, 15]: 100
Ryegrass, Italian plant response rating [5, 16]: 100
Plant response rating, Ryegrass, Italian [5, 17]: 100
Plant response rating, Ryegrass, Italian [5, 18]: 100
Plant response rating, Ryegrass, Italian [5, 19]: 100
Plant response rating, Ryegrass, Italian [5, 20]: 100
Ryegrass, Italian plant response rating [5, 21]: 100
Ryegrass, Italian plant response rating [5, 22]: 100
Lambsquarters plant response rating [6, 15]: 0
Lambsquarters plant response rating [6, 16]: 0
Plant response rating, Lambsquarters [6, 17]: 0
Plant response rating, Lambsquarters [6, 18]: 0
Foxtail, Giant plant response rating [7, 15]: 85
Plant response rating, Foxtail, Giant [7, 23]: 95
Plant response rating, Foxtail, Giant [7, 17]: 100
Plant response rating, Foxtail, Giant [7, 18]: 100
Plant response rating, Foxtail, Giant [7, 19]: 0
Plant response rating, Foxtail, Giant [7, 20]: 0
Foxtail, Giant plant response rating [7, 21]: 0
Foxtail, Giant plant response rating [7, 22]: 0
Bermudagrass plant response rating ([8]; postemergence, 0-100 scale): 0
Plant response rating, Bermudagrass [8, 23]: 0
Plant response rating, Bermudagrass [8, 17]: 60
Plant response rating, Bermudagrass [8, 18]: 75
Bermudagrass plant response rating [8, 24]: 0
Plant response rating, Bermudagrass [8, 25]: 0
Plant response rating, Bermudagrass [8, 19]: 0
Plant response rating, Bermudagrass [8, 20]: 0
Bromegrass, Downy plant response rating ([9]; postemergence, 0-100 scale): 55
Plant response rating, Bromegrass, Downy [9, 23]: 80
Plant response rating, Bromegrass, Downy [9, 17]: 80
Plant response rating, Bromegrass, Downy [9, 18]: 100
Plant response rating, Bromegrass, Downy [9, 25]: 90
Plant response rating, Bromegrass, Downy [9, 19]: 100
Plant response rating, Bromegrass, Downy [9, 20]: 100
Bromegrass, Downy plant response rating ([9]; Preemergence, scale 0 to 100): 50
Soybean plant response rating (soybean (Glycine max); [15]): 0
Soybean plant response rating (soybean (Glycine max); [16]): 0
Plant response rating, Soybean (soybean (Glycine max); [17]): 0
Plant response rating, Soybean (soybean (Glycine max); [18]): 15
Plant response rating, Sunflower [10, 26]: 0
Plant response rating, Sunflower [10, 27]: 0
Sunflower plant response rating ([10]; 8 g ai/ha): 0
Sunflower plant response rating ([10]; 16 g ai/ha): 0
Barley plant response rating [11]: 35
Plant response rating, Barley ([11]; 16 g ai/ha): 85
Plant response rating, Barley ([11]; 31 g ai/ha): 95
Windgrass plant response rating ([12]; 8 g ai/ha): 95
Windgrass plant response rating ([12]; 16 g ai/ha): 100
Plant response rating, Windgrass ([12]; 31 g ai/ha, scale 0 to 100): 100
Plant response rating, Windgrass [12, 28]: 100
Canarygrass plant response rating [13]: 50
Plant response rating, Canarygrass ([13]; 16 g ai/ha, scale 0 to 100): 80
Plant response rating, Canarygrass ([13]; 31 g ai/ha, scale 0 to 100): 95
Chickweed plant response rating [14]: 0
Plant response rating, Chickweed ([14]; 16 g ai/ha, scale 0 to 100): 0
Plant response rating, Chickweed ([14]; 31 g ai/ha, scale 0 to 100): 0
Plant response rating, Chickweed [14, 28]: 0

Source: US20100267561A1, “HERBICIDAL PYRIDAZINONE DERIVATIVES” (priority 2007, published 2010)
